Earlier results, collected in US20020098247A1, “Methods and compositions for the improvement of insulin sensitivity, reduction of hyperglycemia, and reduction of hypercholesterolemia with chromium complexes and alpha lipoic acid” (priority 2000, published 2002).

Tests used:
[1] = rats, oral administration of CrCl3 with the NSAID
[2] = test system: patients with Type II diabetes; details: 600 mg intravenously three weeks, then 6 months tid oral
[3] = test system: patients with Type II diabetes; details: 600 mg tid orally, three weeks
[4] = test system: isolated vasculature of diabetic rats
[5] = test system: Patients with Type II diabetes with symptomatic polyneuropathy; details: intravenous, three weeks
[6] = test system: patients with Type I and Type II diabetes

Row | SMILES | chromium absorption [1] | neuropathy as evidenced by the TSS vs placebo [2] | side effects between groups [2] | TSS in the feet and NDS scores [3] | side effects vs placebo [3] | prevention of the deficit in acetylcholine-induced relaxation in isolated vasculature [4] [%] | frequency of adverse effects ([5]; 1,200 mg dose group vs other groups) | decrease of Total Symptom Score (TSS) in the feet ([5]; two higher doses (600, 1,200 mg per day)) | sensory nerve and tibial nerve conduction velocities ([6]; 600 or 1,200 mg per day, intravenous five days then oral two years) | Neuropathy Disability Score values ([6]; 600 or 1,200 mg per day, two years) | incidence or severity of side effects vs placebo ([6]; two-year study)
1 | CC(=O)Oc1ccccc1C(=O)O [aspirin, acetylsalicylic acid] | facilitated | – | – | – | – | – | – | – | – | – | –
2 | O=C(O)CCCCC1CCSS1 (stereo not drawn) [alpha-lipoic acid] | – | significantly lessened | no significant differences | improvements | No significant differences | 94 | slightly greater rate of gastrointestinal side effects | approximately 60% | improvements | not significantly affected | no significant differences
